Experimental data taken from patent US10781204B2, “TYK2 inhibitors and uses thereof” (Nimbus Lakshmi, Inc., priority 2015, dated 2020).

What was measured:
[1] = biological target: TYK2 (Homo sapiens (Human), UniProt P29597); experiment: Tyk2 radioactive kinase assay; format: biochemical; details: ATP 10 μM
Method: (§1) Peptide substrate, [KKSRGDYMTMQIG], (20 μM) is prepared in reaction buffer (20 mM Hepes pH 7.5, 10 mM MgCl2, 1 mM EGTA, 0.02% Brij35, 0.02 mg/mL BSA, 0.1 mM […], 2 mM DTT, 1% DMSO. TYK2 (Invitrogen) kinase is added, followed by compounds in DMSO. ^33PATP is added to initiate the reaction with ATP at 10 μM. Kinase reaction is incubated for 120 min at room temp and reactions are spotted onto P81 ion exchange paper (Whatman #3698-915), and then washed extensively in 0.75% phosphoric acid, prior to reading the radioactivity counts. For JAK2 (Invitrogen) kinase assay the peptide substrate poly[Glu:Tyr] (4:1), 0.2 mg/ml is used, in the reaction carried out the same as for TYK2.

[2] = biological target: JAK2 (Homo sapiens (Human), UniProt O60674); experiment: JAK2 radioactive kinase assay; format: biochemical; details: ATP 10 μM
Method: as §1

[3] = system: Tyk2-pSTAT4 (IL-12 induced pSTAT4); experiment: IL-12 induced pSTAT4 in human PBMC; format: cell-based; details: Homo sapiens, PBMC, 0.5 h, 1.7 ng/mL IL-12, 30 minutes
Method: Human PBMC are isolated from buffy coat and are stored frozen for assays as needed. Cells for assay are thawed and resuspended in complete media containing serum, then cells are diluted to 1.67 E6 cells/ml so that 120 ul per well is 200,000 cells. 15 ul of compound or DMSO is added to the well at the desired concentrations and incubated at 1 hr at 37 C. 15 ul of stimulus (final concentration of 1.7 ng/mL IL-12) is added for 30 minutes prior to pSTAT4 and total STAT4 analysis using cell lysates prepared and analyzed by MSD reagents as per manufacturer protocol. The final DMSO concentration of compound in the assay is 0.1%.

Sequence of TYK2 (P29597 whole entry): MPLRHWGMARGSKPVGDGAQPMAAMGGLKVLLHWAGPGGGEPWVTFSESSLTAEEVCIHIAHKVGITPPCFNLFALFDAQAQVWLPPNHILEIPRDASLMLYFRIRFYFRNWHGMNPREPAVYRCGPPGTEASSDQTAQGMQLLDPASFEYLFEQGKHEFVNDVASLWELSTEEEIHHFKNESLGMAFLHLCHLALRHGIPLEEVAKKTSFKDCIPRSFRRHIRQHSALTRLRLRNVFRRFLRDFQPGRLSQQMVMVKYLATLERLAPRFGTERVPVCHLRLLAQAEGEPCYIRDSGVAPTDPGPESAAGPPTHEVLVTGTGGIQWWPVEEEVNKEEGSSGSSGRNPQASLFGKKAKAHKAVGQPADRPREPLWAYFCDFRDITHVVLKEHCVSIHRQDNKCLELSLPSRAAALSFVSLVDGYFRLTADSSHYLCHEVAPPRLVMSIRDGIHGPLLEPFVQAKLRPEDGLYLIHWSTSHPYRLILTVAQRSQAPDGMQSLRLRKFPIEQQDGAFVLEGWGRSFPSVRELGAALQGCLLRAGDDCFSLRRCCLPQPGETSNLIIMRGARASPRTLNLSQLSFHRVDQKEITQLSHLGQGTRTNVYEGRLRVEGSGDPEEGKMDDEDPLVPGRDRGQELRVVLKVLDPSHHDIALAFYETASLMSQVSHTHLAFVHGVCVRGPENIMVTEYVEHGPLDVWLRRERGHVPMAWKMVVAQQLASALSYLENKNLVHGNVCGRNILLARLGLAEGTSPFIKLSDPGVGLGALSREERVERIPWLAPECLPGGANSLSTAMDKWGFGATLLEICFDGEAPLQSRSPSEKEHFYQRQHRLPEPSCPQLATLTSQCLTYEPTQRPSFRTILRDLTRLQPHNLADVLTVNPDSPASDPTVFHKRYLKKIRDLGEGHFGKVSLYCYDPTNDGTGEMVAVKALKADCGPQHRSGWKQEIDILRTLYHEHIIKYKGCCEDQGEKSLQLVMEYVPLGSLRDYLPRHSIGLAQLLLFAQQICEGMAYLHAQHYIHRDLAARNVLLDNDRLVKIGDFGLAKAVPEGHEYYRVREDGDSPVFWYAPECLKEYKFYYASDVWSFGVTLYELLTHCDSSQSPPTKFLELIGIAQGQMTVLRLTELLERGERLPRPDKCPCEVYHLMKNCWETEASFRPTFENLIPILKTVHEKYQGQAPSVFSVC
Sequence of JAK2 (O60674 whole entry): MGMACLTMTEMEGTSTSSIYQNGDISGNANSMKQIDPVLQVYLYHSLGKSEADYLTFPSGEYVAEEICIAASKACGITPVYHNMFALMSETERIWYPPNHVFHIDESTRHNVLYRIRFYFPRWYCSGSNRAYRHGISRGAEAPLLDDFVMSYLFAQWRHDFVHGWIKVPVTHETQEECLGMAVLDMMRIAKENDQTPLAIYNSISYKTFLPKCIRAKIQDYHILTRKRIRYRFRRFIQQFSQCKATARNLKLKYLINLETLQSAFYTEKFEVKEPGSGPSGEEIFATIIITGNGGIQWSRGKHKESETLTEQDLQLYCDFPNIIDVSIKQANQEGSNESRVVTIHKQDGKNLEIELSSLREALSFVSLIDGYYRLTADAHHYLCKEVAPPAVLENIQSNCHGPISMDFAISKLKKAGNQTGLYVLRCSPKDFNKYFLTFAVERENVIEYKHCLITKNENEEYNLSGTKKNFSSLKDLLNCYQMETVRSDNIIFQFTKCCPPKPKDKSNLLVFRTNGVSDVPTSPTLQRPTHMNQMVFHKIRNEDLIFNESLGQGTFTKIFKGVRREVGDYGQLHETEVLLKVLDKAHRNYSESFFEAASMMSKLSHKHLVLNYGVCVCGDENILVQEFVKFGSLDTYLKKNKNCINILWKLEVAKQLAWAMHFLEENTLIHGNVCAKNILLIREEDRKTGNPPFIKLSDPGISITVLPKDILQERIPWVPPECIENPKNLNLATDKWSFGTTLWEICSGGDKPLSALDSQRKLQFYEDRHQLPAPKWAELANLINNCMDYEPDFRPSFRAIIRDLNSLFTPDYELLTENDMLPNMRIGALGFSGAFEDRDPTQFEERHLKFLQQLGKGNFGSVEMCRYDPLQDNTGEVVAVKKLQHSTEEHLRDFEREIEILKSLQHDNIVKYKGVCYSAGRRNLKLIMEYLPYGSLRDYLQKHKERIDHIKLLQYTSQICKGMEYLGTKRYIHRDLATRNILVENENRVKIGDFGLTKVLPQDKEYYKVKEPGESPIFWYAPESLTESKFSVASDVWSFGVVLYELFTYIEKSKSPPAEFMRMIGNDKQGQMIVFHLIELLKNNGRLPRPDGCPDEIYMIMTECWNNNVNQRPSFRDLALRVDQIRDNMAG

Row | Ki [1] | Ki [2] | EC50 [3] | SMILES
1 | 0.1 to 10 nM | 100 to 1000 nM |  | O=C1NCc2nc(-c3c(F)cccc3F)cc(-n3ccc(N4CCOCC4)n3)c21 [I-1, 2-(2,6-difluorophenyl)-4-(3-morpholino-1H-pyrazol-1-yl)-6,7-dihydro-5H-pyrrolo[3,4-b]pyridin-5-one]
2 | 0.1 to 10 nM | 100 to 1000 nM |  | CN1CCN(c2ccn(-c3cc(-c4c(F)cccc4F)nc4c3C(=O)NC4)n2)CC1 [I-5, 2-(2,6-difluorophenyl)-4-(3-(4-methylpiperazin-1-yl)-1H-pyrazol-1-yl)-6,7-dihydro-5H-pyrrolo[3,4-b]pyridin-5-one]
3 | 0.1 to 10 nM | 100 to 1000 nM |  | CCNC(=O)Cc1ccn(-c2cc(-c3c(F)cccc3C#N)nc3c2C(=O)NC3)n1 [I-7, 2-(1-(2-(2-cyano-6-fluorophenyl)-5-oxo-6,7-dihydro-5H-pyrro-lo[3,4-b]pyridin-4-yl)-1H-pyrazol-3-yl)-N-ethylacetamide]
4 | 10 to 100 nM | 100 to 1000 nM |  | O=C1NCc2nc(-c3c(F)cccc3F)cc(-n3cccn3)c21 [I-58, 2-(2,6-difluorophenyl)-4-(1H-pyrazol-1-yl)-6,7-dihydro-5H-pyrrolo[3,4-b]pyridin-5-one]
5 | 0.1 to 10 nM | 10 to 100 nM | 100 to 2000 nM | CC(C)n1cc(-c2cc(-c3c(F)cccc3C#N)nc3c2C(=O)NC3)cn1 [I-61, 3-fluoro-2-(4-(1-isopropyl-1H-pyrazol-4-yl)-5-oxo-6,7-dihydro-5H-pyrrolo[3,4-b]pyridin-2-yl)benzonitrile]
6 | 0.1 to 10 nM | 10 to 100 nM |  | N#Cc1cccc(F)c1-c1cc(-n2ccc(NCCO)n2)c2c(n1)CNC2=O [I-64, 3-fluoro-2-(4-(3-((2-hydroxyethyl)amino)-1H-pyrazol-1-yl)-5-oxo-6,7-dihydro-5H-pyrrolo[3,4-b]pyridin-2-yl)benzonitrile]
7 | 0.1 to 10 nM | 10 to 100 nM |  | N#Cc1cccc(F)c1-c1cc(-n2ccc(N3CCC(N4CCCC4)CC3)n2)c2c(n1)CNC2=O [I-66, 3-fluoro-2-(5-oxo-4-(3-(4-(pyrrolidin-1-yl)piperidin-1-yl)-1H-pyrazol-1-yl)-6,7-dihydro-5H-pyrrolo[3,4-b]pyridin-2-yl)benzonitrile]
8 | 0.1 to 10 nM | 10 to 100 nM |  | CN(C)[C@H]1CC[C@H](Nc2ccn(-c3cc(-c4c(F)cccc4C#N)nc4c3C(=O)NC4)n2)CC1 [I-67, 2-(4-(3-(((1r,4r)-4-(dimethylamino)cyclohexyl)amino)-1H-pyrazol-1-yl)-5-oxo-6,7-dihydro-5H-pyrrolo[3,4-b]pyridin-2-yl)-3-fluorobenzonitrile]
9 | ≥ 1000 nM | ≥ 1000 nM |  | COCCOC1CN(c2ccn(-c3cc(-c4c(F)cccc4C#N)nc4c3C(=O)NC4)n2)C1 [I-82, 3-fluoro-2-(4-(3-(3-(2-methoxyethoxy)azetidin-1-yl)-1H-pyrazol-1-yl)-5-oxo-6,7-dihydro-5H-pyrrolo[3,4-b]pyridin-2-yl)benzonitrile]
10 | 0.1 to 10 nM | 10 to 100 nM |  | CC1(O)CCN(c2ccn(-c3cc(-c4c(F)cccc4C#N)nc4c3C(=O)NC4)n2)C1 (centres unmarked) [I-87, 3-fluoro-2-(4-(3-(3-hydroxy-3-methylpyrrolidin-1-yl)-1H-pyrazol-1-yl)-5-oxo-6,7-dihydro-5H-pyrrolo[3,4-b]pyridin-2-yl)benzonitrile]
11 | 10 to 100 nM | 100 to 1000 nM |  | N#Cc1cccc(F)c1-c1cc(-n2ccc(CCO)n2)c2c(n1)CNC2=O [I-94, 3-fluoro-2-(4-(3-(2-hydroxyethyl)-1H-pyrazol-1-yl)-5-oxo-6,7-dihydro-5H-pyrrolo[3,4-b]pyridin-2-yl)benzonitrile]
12 | ≥ 1000 nM | ≥ 1000 nM |  | CN1CC(S(=O)(=O)N2CCN(c3ccn(-c4cc(-c5c(F)cccc5C#N)nc5c4C(=O)NC5)n3)CC2)C1 [I-99, 3-fluoro-2-(4-(3-(4-((1-methylazetidin-3-yl)sulfonyl)piperazin-1-yl)-1H-pyrazol-1-yl)-5-oxo-6,7-dihydro-5H-pyrrolo[3,4-b]pyridin-2-yl)benzonitrile]
13 | 10 to 100 nM | ≥ 1000 nM |  | N#Cc1cccc(F)c1-c1cc(-n2ccc(CC(=O)O)n2)c2c(n1)CNC2=O [I-102, 2-(1-(2-(2-cyano-6-fluorophenyl)-5-oxo-6,7-dihydro-5H-pyrrolo[3,4-b]pyridin-4-yl)-1H-pyrazol-3-yl)acetic acid]
14 | 10 to 100 nM | 100 to 1000 nM |  | C[C@@H]1CC(O)C[C@@H](C)N1c1ccn(-c2cc(-c3c(F)cccc3C#N)nc3c2C(=O)NC3)n1 (stereo partly drawn) [I-106, 3-fluoro-2-(4-(3-((2R,6R)-4-hydroxy-2,6-dimethylpiperidin-1-yl)-1H-pyrazol-1-yl)-5-oxo-6,7-dihydro-5H-pyrrolo[3,4-b]pyridin-2-yl)benzonitrile]
15 | 0.1 to 10 nM | 0.1 to 10 nM |  | CC1(O)CN(c2ccn(-c3cc(-c4c(F)cccc4C#N)nc4c3C(=O)NC4)n2)CC[C@H]1O (stereo partly drawn) [I-108, 2-(4-(3-((4R)-3,4-dihydroxy-3-methylpiperidin-1-yl)-1H-pyrazol-1-yl)-5-oxo-6,7-dihydro-5H-pyrrolo[3,4-b]pyridin-2-yl)-3-fluorobenzonitrile]
16 | 0.1 to 10 nM | 10 to 100 nM |  | N#Cc1cccc(F)c1-c1cc(-n2ccc(N3CCC[C@H](O)[C@H](O)C3)n2)c2c(n1)CNC2=O [I-115, 2-(4-(3-((3R,4S)-3,4-dihydroxyazepan-1-yl)-1H-pyrazol-1-yl)-5-oxo-6,7-dihydro-5H-pyrrolo[3,4-b]pyridin-2-yl)-3-fluorobenzonitrile]
17 | 0.1 to 10 nM | 0.1 to 10 nM |  | N#Cc1cccc(F)c1-c1cc(-n2ccc(N3CCC(C#N)C3)n2)c2c(n1)CNC2=O (centres unmarked) [I-116, 1-(1-(2-(2-cyano-6-fluorophenyl)-5-oxo-6,7-dihydro-5H-pyrrolo[3,4-b]pyridin-4-yl)-1H-pyrazol-3-yl)pyrrolidine-3-carbonitrile]
18 | 0.1 to 10 nM | 10 to 100 nM |  | CN(C)[C@H]1CC[C@H](Oc2ccn(-c3cc(-c4c(F)cccc4C#N)nc4c3C(=O)NC4)n2)CC1 [I-117, 2-(4-(3-(((1r,4r)-4-(dimethylamino)cyclohexyl)oxy)-1H-pyrazol-1-yl)-5-oxo-6,7-dihydro-5H-pyrrolo[3,4-b]pyridin-2-yl)-3-fluorobenzonitrile]
19 | 0.1 to 10 nM | 100 to 1000 nM |  | N#Cc1cccc(F)c1-c1cc(-n2ccc(N3CCOCC3=O)n2)c2c(n1)CNC2=O [I-138, 3-fluoro-2-(5-oxo-4-(3-(3-oxomorpholino)-1H-pyrazol-1-yl)-6,7-dihydro-5H-pyrrolo[3,4-b]pyridin-2-yl)benzonitrile]
20 | 0.1 to 10 nM | 0.1 to 10 nM |  | CO[C@H]1CN(c2ccn(-c3cc(-c4c(F)cccc4C#N)nc4c3C(=O)NC4)n2)C[C@H]1O [I-143, 3-fluoro-2-(4-(3-((3R,4S)-3-hydroxy-4-methoxypyrrolidin-1-yl)-1H-pyrazol-1-yl)-5-oxo-6,7-dihydro-5H-pyrrolo[3,4-b]pyridin-2-yl)benzonitrile]
21 | 10 to 100 nM | 100 to 1000 nM |  | C[C@]1(O)CN(c2ccn(-c3cc(-c4c(F)cccc4C#N)nc4c3C(=O)NC4)n2)C[C@@](C)(O)C1 [I-144, 2-(4-(3-((3S,5R)-3,5-dihydroxy-3,5-dimethylpiperidin-1-yl)-1H-pyrazol-1-yl)-5-oxo-6,7-dihydro-5H-pyrrolo[3,4-b]pyridin-2-yl)-3-fluorobenzonitrile]
22 | 0.1 to 10 nM | 10 to 100 nM |  | N#Cc1cccc(F)c1-c1cc(-n2ccc(N3CCC4(CCNC4=O)C3)n2)c2c(n1)CNC2=O (centres unmarked) [I-146, 3-fluoro-2-(5-oxo-4-(3-(6-oxo-2,7-diazaspiro[4.4]nonan-2-yl)-1H-pyrazol-1-yl)-6,7-dihydro-5H-pyrrolo[3,4-b]pyridin-2-yl)benzonitrile]
23 | 0.1 to 10 nM |  | 30 to 100 nM | CO[C@@H]1CN(c2ccn(-c3cc(-c4c(F)cccc4C#N)nc4c3C(=O)NC4)n2)C[C@@H]1O [I-154, 3-fluoro-2-(4-(3-((3S,4R)-3-hydroxy-4-methoxypyrrolidin-1-yl)-1H-pyrazol-1-yl)-5-oxo-6,7-dihydro-5H-pyrrolo[3,4-b]pyridin-2-yl)benzonitrile]
24 | 0.1 to 10 nM | 10 to 100 nM |  | N#Cc1cccc(F)c1-c1cc(-n2ccc(N3CC[C@H](F)[C@H](O)C3)n2)c2c(n1)CNC2=O [I-174, 3-fluoro-2-(4-(3-((3R,4S)-4-fluoro-3-hydroxypiperidin-1-yl)-1H-pyrazol-1-yl)-5-oxo-6,7-dihydro-5H-pyrrolo[3,4-b]pyridin-2-yl)benzonitrile]
25 | 0.1 to 10 nM | 10 to 100 nM |  | [2H]C([2H])([2H])O[C@H]1CN(c2ccn(-c3cc(-c4c(F)cccc4C#N)nc4c3C(=O)NC4)n2)C[C@H]1O [I-199, 3-fluoro-2-(4-(3-((3R,4S)-3-hydroxy-4-(methoxy-d3)pyrrolidin-1-yl)-1H-pyrazol-1-yl)-5-oxo-6,7-dihydro-5H-pyrrolo[3,4-b]pyridin-2-yl)benzonitrile]

Row | SMILES | Ki [1] | Ki [2] | EC50 [3]
26 | CS(=O)(=O)c1ccn(-c2cc(-c3c(F)cccc3C#N)nc3c2C(=O)NC3)n1 [I-81, 3-fluoro-2-(4-(3-(methylsulfonyl)-1H-pyrazol-1-yl)-5-oxo-6,7-dihydro-5H-pyrrolo[3,4-b]pyridin-2-yl)benzonitrile] | 10 to 100 nM | ≥ 1000 nM | 
